From article PMC5142613 (The Biochemical journal, 2015)
“Also recorded” adds a separate entry of the source.

Legend:
[1] = biological target: T1, ATAD2A bromodomain (Homo sapiens, UniProt Q6PL18); test: ATAD2A AlphaScreen assay; type: binding; conditions: for Displacement of histone peptide by small molecule: titration upon H4K5Ac peptide competition, Supplementary Fig. 3b
T1 sequence (Q6PL18 980-1092 limits assumed): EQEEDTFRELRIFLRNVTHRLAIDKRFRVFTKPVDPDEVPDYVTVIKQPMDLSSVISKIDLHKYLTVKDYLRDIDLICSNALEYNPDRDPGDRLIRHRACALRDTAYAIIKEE

[2] = biological target: ATAD2A bromodomain; test: DiscoveRx competitive displacement assay; type: binding; conditions: orthogonal assay; as previously described [22]
[3] = biological target: T1, ATAD2A bromodomain; test: X-ray co-crystallography of ATAD2A complexes; type: binding; conditions: for Binding site / binding mode in crystal structure: co-crystal structure with ATAD2A bromodomain; for Conformational form of ATAD2A in the complex: co-crystal structure, ZA loop position relative to PDB 3DAI
[4] = system: ATAD2A bromodomain; conditions: human cells (H3K14ac listed second, "respectively"); ref [7], [30]; cited from earlier work
[5] = system: ATAD2A bromodomain; conditions: ref [24]; cited from earlier work

| Compound | Displacement of histone peptide by small molecule [1] | Affinity in DiscoveRx competitive displacement assay [2] | Response of acetylated histone peptide in AlphaScreen panel ([1]; direct binding of biotinylated peptide to His-ATAD2A, chemiluminescent readout) | Binding site / binding mode in crystal structure [3] | Histone interaction by co-immunoprecipitation, human cells [4] | Interaction in panning of histone peptide panels by peptide array [5] | Binding measured in vitro, compound 2 versus compound 1 ([1]; Fig. 5a, IC50 and Kd (AlphaScreen and DiscoveRx), comparison with compound 1) | Conformational form of ATAD2A in the complex [3] |
| --- | --- | --- | --- | --- | --- | --- | --- | --- |
| CCOC(=O)Nc1cc(-c2ccc(C)c(NS(C)(=O)=O)c2)nn2c(C)nnc12 [Bromosporine, reference compound] | displaced | high μM |  |  |  |  |  |  |
| ARTKQTARKSTGGK(Ac)APRKQLAGGK [H3K14ac, reference compound] |  |  | did not respond | interacts along the end of αC helix, far from the acetyllysine binding site; also recorded: binds non-specifically | histone interactions have been reported | have not been confirmed |  |  |
| Cc1noc(C)c1-c1cc(NS(=O)(=O)c2ccccc2)cc(C(=O)O)c1 [compound 2, 3-(3,5-Dimethylisoxazol-4-yl)-5-(phenylsulfonamido)benzoic acid] | displaced | high μM |  | acetyllysine mimetic binding mode |  |  | weaker binding | open form |
| COC(=O)c1cc(NS(=O)(=O)c2ccccc2)cc(-c2c(C)noc2C)c1 [compound 1, Methyl 3-(3,5-dimethylisoxazol-4-yl)-5-(phenylsulfonamido)benzoate] | displaced | high μM |  | acetyllysine mimetic binding mode |  |  |  | open form |
